Assays:
Type in all cases: in vivo
[1] = test system: Bermudagrass v. Tifway 419; assay: Phytotoxicity via post emergence spray application (Table B2.3)
Experimental: (§1) The phytotoxicity of the compound of formula I to turfgrass species was tested. The compound was applied via post emergence spray to a range of warm and cool season turfgrass species at various rates and spray treatment treatment regimes. Percentage phytotoxicity assessments were taken at various timepoints.

[2] = test system: St. Augustinegrass v. Delmar; assay: Phytotoxicity via granule application (Table B3.1)
turfgrass = assay: Example B4, conclusion in words; settings: in combination with a safener
Experimental: The phytotoxicity to turfgrass of the compound of formula I in combination with various safeners was tested. The combinations were applied by post emergence spray application. Percentage phytotoxicity assessments were taken at various timepoints. The safeners tested in these trials were cloquintocet-mexyl, cyprosulfamide, a compound of formula 2.3, and isoxadifen-ethyl.

[3] = test system: Kentucky bluegrass (3D blend); assay: Phytotoxicity via post emergence spray application (Table B2.6); settings: 1 appl
Experimental: as §1

Zoysiagrass v. Meyer = assay: Phytotoxicity via post emergence spray application (Table B2.2)
Experimental: as §1

Kentucky blue grass = assay: Selective post-emergence herbicidal action, field trial Champaign (Table B1.1); settings: 22 days after application
Experimental: The selectivity of the compound of formula I in turf (removal of grassy and broadleaf weeds) has been tested in turfgrass varieties selected from Kentucky bluegrass, tall fescue and perennial ryegrass and in […] selected from clover (an aggressive perennial weed) and dandelion (a weed of perennial horticultural crops and gardens which may also be a problem in some annual crops, particularly where reduced tillage is practiced).
The trials were conducted in Champaign, Ill., U.S. (Table B1.1) and Hudson, N.Y., U.S. (Table B1.2) under field conditions. Turfgrasses were maintained at approximately a 2.5″ height, like a home lawn. Mixed turf and weed stands were present. The test compounds were applied with a CO2 pressurized backpack sprayer by spraying in the form of an aqueous suspension (prepared from a wettable powder) in a concentration of 210 to 280 g/ha. The plots were then mowed and irrigated as needed. After 22 and 28 days respectively, the test is visually evaluated (100%=total damage to plant; 0%=no damage to plant).

[4] = test system: Hydrocotyle sp. (dollarweed); assay: Weed control via post emergence spray, in St. Augustinegrass v. Floratam (Table B5.3)
Experimental: The weed control efficacy of the compound of formula I was tested. The compound was applied via post emergence spray to a range of weeds, at various rates and spray treatment treatment regimes. Percentage weed control assessments were taken at various timepoints.

## COCCOCc1nc(C(F)(F)F)ccc1C(=O)C1=C(O)C2CCC(C2)C1=O (centres unmarked) [Formula I, 4-Hydroxy-3-[2-(2-methoxyethoxymethyl)-6-trifluoromethylpyridine-3-carbonyl]-bicyclo[3.2.1]oct-3-en-2-one]
[1]; 1 appl, 140 g ai/ha, 8 DAT
  % phytotoxicity: 36.25%
[1]; 1 appl, 140 g ai/ha, 14 DAT
  % phytotoxicity: 28.75%
[1]; 1 appl, 140 g ai/ha, 29 DAT
  % phytotoxicity: 1.25%
[1]; 1 appl, 140 g ai/ha, 35 DAT
  % phytotoxicity: 0.00%
[1]; 1 appl, 140 g ai/ha, 43 DAT
  % phytotoxicity: 0.00%
[1]; 1 appl, 140 g ai/ha, 51 DAT
  % phytotoxicity: 0.00%
[1]; 1 appl, 140 g ai/ha, 60 DAT
  % phytotoxicity: 0.00%
[1]; 1 appl, 280 g ai/ha, 8 DAT
  % phytotoxicity: 35.00%
[1]; 1 appl, 280 g ai/ha, 14 DAT
  % phytotoxicity: 52.50%
[1]; 1 appl, 280 g ai/ha, 29 DAT
  % phytotoxicity: 1.25%
[1]; 1 appl, 280 g ai/ha, 35 DAT
  % phytotoxicity: 0.00%
[1]; 1 appl, 280 g ai/ha, 43 DAT
  % phytotoxicity: 0.00%
[1]; 1 appl, 280 g ai/ha, 51 DAT
  % phytotoxicity: 0.00%
[1]; 1 appl, 280 g ai/ha, 60 DAT
  % phytotoxicity: 0.00%
[1]; 2 appl, 140 g ai/ha, 8 DAT
  % phytotoxicity: 26.25%
[1]; 2 appl, 140 g ai/ha, 14 DAT
  % phytotoxicity: 31.25%
[1]; 2 appl, 140 g ai/ha, 29 DAT
  % phytotoxicity: 0.00%
[1]; 2 appl, 140 g ai/ha, 35 DAT
  % phytotoxicity: 30.00%
[1]; 2 appl, 140 g ai/ha, 43 DAT
  % phytotoxicity: 18.75%
[1]; 2 appl, 140 g ai/ha, 51 DAT
  % phytotoxicity: 7.50%
[1]; 2 appl, 140 g ai/ha, 60 DAT
  % phytotoxicity: 0.00%
[1]; 2 appl, 280 g ai/ha, 8 DAT
  % phytotoxicity: 36.25%
[1]; 2 appl, 280 g ai/ha, 14 DAT
  % phytotoxicity: 52.50%
[1]; 2 appl, 280 g ai/ha, 29 DAT
  % phytotoxicity: 3.75%
[1]; 2 appl, 280 g ai/ha, 35 DAT
  % phytotoxicity: 28.75%
[1]; 2 appl, 280 g ai/ha, 43 DAT
  % phytotoxicity: 22.50%
[1]; 2 appl, 280 g ai/ha, 51 DAT
  % phytotoxicity: 8.75%
[1]; 2 appl, 280 g ai/ha, 60 DAT
  % phytotoxicity: 0.00%
[2]; Granule A (inert), 112 g ai/ha, 11 DAT
  % phytotoxicity: 1.30%
[2]; Granule A (inert), 112 g ai/ha, 15 DAT
  % phytotoxicity: 0.70%
[2]; Granule A (inert), 112 g ai/ha, 28 DAT
  % phytotoxicity: 0.00%
[2]; Granule A (inert), 280 g ai/ha, 20 DAT
  % phytotoxicity: 0.00%
[2]; Granule A (inert), 280 g ai/ha, 28 DAT
  % phytotoxicity: 0.00%
[2]; Granule B (fertiliser), 112 g ai/ha, 20 DAT
  % phytotoxicity: 1.30%
[2]; Granule B (fertiliser), 112 g ai/ha, 28 DAT
  % phytotoxicity: 0.00%
[2]; Granule B (fertiliser), 280 g ai/ha, 7 DAT
  % phytotoxicity: 36.70%
[2]; Granule B (fertiliser), 280 g ai/ha, 15 DAT
  % phytotoxicity: 11.70%
[2]; Granule B (fertiliser), 280 g ai/ha, 20 DAT
  % phytotoxicity: 5.00%
[2]; Granule B (fertiliser), 280 g ai/ha, 28 DAT
  % phytotoxicity: 1.70%
[2]; Spray, 112 g ai/ha, 7 DAT
  % phytotoxicity: 36.70%
[2]; Spray, 112 g ai/ha, 11 DAT
  % phytotoxicity: 20.00%
[2]; Spray, 112 g ai/ha, 15 DAT
  % phytotoxicity: 9.30%
[2]; Spray, 112 g ai/ha, 20 DAT
  % phytotoxicity: 4.00%
[2]; Spray, 112 g ai/ha, 28 DAT
  % phytotoxicity: 0.00%
[2]; Spray, 280 g ai/ha, 7 DAT
  % phytotoxicity: 60.00%
[2]; Spray, 280 g ai/ha, 11 DAT
  % phytotoxicity: 43.30%
[2]; Spray, 280 g ai/ha, 15 DAT
  % phytotoxicity: 20.00%
[2]; Spray, 280 g ai/ha, 20 DAT
  % phytotoxicity: 10.00%
[2]; Spray, 280 g ai/ha, 28 DAT
  % phytotoxicity: 3.30%
turfgrass
  phytotoxicity in combination with a safener, in words: reduces the level of phytotoxicity to turfgrass
[3]; 10 g ai/ha, 4 DAT
  % phytotoxicity: 7.50%
[3]; 10 g ai/ha, 12 DAT
  % phytotoxicity: 0.00%
[3]; 10 g ai/ha, 22 DAT
  % phytotoxicity: 0.00%
[3]; 10 g ai/ha, 33 DAT
  % phytotoxicity: 0.00%
[3]; 10 g ai/ha, 42 DAT
  % phytotoxicity: 0.00%
[3]; 10 g ai/ha, 160 DAT
  % phytotoxicity: 0.00%
[3]; 20 g ai/ha, 4 DAT
  % phytotoxicity: 2.50%
[3]; 20 g ai/ha, 12 DAT
  % phytotoxicity: 0.00%
[3]; 20 g ai/ha, 22 DAT
  % phytotoxicity: 0.00%
[3]; 20 g ai/ha, 33 DAT
  % phytotoxicity: 0.00%
[3]; 20 g ai/ha, 42 DAT
  % phytotoxicity: 0.00%
[3]; 20 g ai/ha, 160 DAT
  % phytotoxicity: 0.00%
[3]; 40 g ai/ha, 4 DAT
  % phytotoxicity: 7.50%
[3]; 40 g ai/ha, 12 DAT
  % phytotoxicity: 0.00%
[3]; 40 g ai/ha, 22 DAT
  % phytotoxicity: 0.00%
[3]; 40 g ai/ha, 33 DAT
  % phytotoxicity: 0.00%
[3]; 40 g ai/ha, 42 DAT
  % phytotoxicity: 0.00%
[3]; 40 g ai/ha, 160 DAT
  % phytotoxicity: 0.00%
[3]; 80 g ai/ha, 4 DAT
  % phytotoxicity: 7.50%
[3]; 80 g ai/ha, 12 DAT
  % phytotoxicity: 0.00%
[3]; 80 g ai/ha, 22 DAT
  % phytotoxicity: 0.00%
[3]; 80 g ai/ha, 33 DAT
  % phytotoxicity: 0.00%
[3]; 80 g ai/ha, 42 DAT
  % phytotoxicity: 0.00%
[3]; 80 g ai/ha, 160 DAT
  % phytotoxicity: 0.00%
[3]; 160 g ai/ha, 4 DAT
  % phytotoxicity: 7.50%
[3]; 160 g ai/ha, 12 DAT
  % phytotoxicity: 0.00%
[3]; 160 g ai/ha, 22 DAT
  % phytotoxicity: 0.00%
[3]; 160 g ai/ha, 33 DAT
  % phytotoxicity: 0.00%
[3]; 160 g ai/ha, 42 DAT
  % phytotoxicity: 0.00%
[3]; 160 g ai/ha, 160 DAT
  % phytotoxicity: 0.00%
Zoysiagrass v. Meyer; 1 appl, 140 g ai/ha, 8 DAT
  % phytotoxicity: 42.50%
Zoysiagrass v. Meyer; 1 appl, 140 g ai/ha, 14 DAT
  % phytotoxicity: 51.25%
Zoysiagrass v. Meyer; 1 appl, 140 g ai/ha, 29 DAT
  % phytotoxicity: 41.25%
Zoysiagrass v. Meyer; 1 appl, 140 g ai/ha, 35 DAT
  % phytotoxicity: 25.00%
Zoysiagrass v. Meyer; 1 appl, 140 g ai/ha, 43 DAT
  % phytotoxicity: 7.50%
Zoysiagrass v. Meyer; 1 appl, 140 g ai/ha, 51 DAT
  % phytotoxicity: 5.00%
Zoysiagrass v. Meyer; 1 appl, 140 g ai/ha, 60 DAT
  % phytotoxicity: 0.00%
Zoysiagrass v. Meyer; 1 appl, 280 g ai/ha, 8 DAT
  % phytotoxicity: 45.00%
Zoysiagrass v. Meyer; 1 appl, 280 g ai/ha, 14 DAT
  % phytotoxicity: 57.50%
Zoysiagrass v. Meyer; 1 appl, 280 g ai/ha, 29 DAT
  % phytotoxicity: 61.25%
Zoysiagrass v. Meyer; 1 appl, 280 g ai/ha, 35 DAT
  % phytotoxicity: 28.75%
Zoysiagrass v. Meyer; 1 appl, 280 g ai/ha, 43 DAT
  % phytotoxicity: 8.75%
Zoysiagrass v. Meyer; 1 appl, 280 g ai/ha, 51 DAT
  % phytotoxicity: 3.75%
Zoysiagrass v. Meyer; 1 appl, 280 g ai/ha, 60 DAT
  % phytotoxicity: 0.00%
Zoysiagrass v. Meyer; 2 appl, 140 g ai/ha, 8 DAT
  % phytotoxicity: 33.75%
Zoysiagrass v. Meyer; 2 appl, 140 g ai/ha, 14 DAT
  % phytotoxicity: 47.50%
Zoysiagrass v. Meyer; 2 appl, 140 g ai/ha, 29 DAT
  % phytotoxicity: 17.50%
Zoysiagrass v. Meyer; 2 appl, 140 g ai/ha, 35 DAT
  % phytotoxicity: 43.75%
Zoysiagrass v. Meyer; 2 appl, 140 g ai/ha, 43 DAT
  % phytotoxicity: 27.50%
Zoysiagrass v. Meyer; 2 appl, 140 g ai/ha, 51 DAT
  % phytotoxicity: 8.75%
Zoysiagrass v. Meyer; 2 appl, 140 g ai/ha, 60 DAT
  % phytotoxicity: 0.00%
Zoysiagrass v. Meyer; 2 appl, 280 g ai/ha, 8 DAT
  % phytotoxicity: 38.75%
Zoysiagrass v. Meyer; 2 appl, 280 g ai/ha, 14 DAT
  % phytotoxicity: 57.50%
Zoysiagrass v. Meyer; 2 appl, 280 g ai/ha, 29 DAT
  % phytotoxicity: 52.50%
Zoysiagrass v. Meyer; 2 appl, 280 g ai/ha, 35 DAT
  % phytotoxicity: 47.50%
Zoysiagrass v. Meyer; 2 appl, 280 g ai/ha, 43 DAT
  % phytotoxicity: 28.75%
Zoysiagrass v. Meyer; 2 appl, 280 g ai/ha, 51 DAT
  % phytotoxicity: 12.50%
Zoysiagrass v. Meyer; 2 appl, 280 g ai/ha, 60 DAT
  % phytotoxicity: 0.00%
Kentucky blue grass; 210 g/ha
  % damage: 0%
Kentucky blue grass; 280 g/ha
  % damage: 0%
[4]; 1 appl, 140 g ai/ha, 5 DAT
  % control: 10.00%
[4]; 1 appl, 140 g ai/ha, 13 DAT
  % control: 60.00%
[4]; 1 appl, 140 g ai/ha, 21 DAT
  % control: 50.00%
[4]; 1 appl, 280 g ai/ha, 5 DAT
  % control: 15.00%
[4]; 1 appl, 280 g ai/ha, 13 DAT
  % control: 57.50%
[4]; 1 appl, 280 g ai/ha, 21 DAT
  % control: 60.00%
[4]; 2 appl, 140 g ai/ha, 5 DAT
  % control: 15.00%
[4]; 2 appl, 140 g ai/ha, 13 DAT
  % control: 55.00%
[4]; 2 appl, 140 g ai/ha, 21 DAT
  % control: 52.50%
[4]; 2 appl, 280 g ai/ha, 5 DAT
  % control: 20.00%
[4]; 2 appl, 280 g ai/ha, 13 DAT
  % control: 65.00%
[4]; 2 appl, 280 g ai/ha, 21 DAT
  % control: 62.50%

Source: patent publication US20100184596A1, “METHOD FOR THE CONTROL OF WEEDS IN TURF” (SYNGENTA CROP PROTECTION, INC., priority 2007, published 2010)
